Measured values reported in patent US12195557B2, “Optimised compounds” (AXELIA ONCOLOGY PTY LTD, priority 2017, dated 2025).
Read-outs that look alike come from different tables or passages of the source. Residues, ends and D or L forms follow the SMILES beside them. *: point of attachment. X1 = CCCCCCCCCCCCCCCC(=O)OCC(C*)OC(=O)CCCCCCCCCCCCCCC

Columns and labels:
[1] = system: A/Udorn/307/72 (H3N2) influenza virus; assay type: in vivo, C57BL/6 mice; details: n=5, day 5 (Example 4)
human TLR2 [2] = target: T1, human TLR2 (Homo sapiens, UniProt O60603); test: NF-kB activation in HEKBlue-hTLR2 cell line (SEAP reporter); assay type: cell-based
T1 construct: host or cells: HEK-Blue hTLR2 (HEK293-derived) cell line
T1 sequence (O60603 21-784): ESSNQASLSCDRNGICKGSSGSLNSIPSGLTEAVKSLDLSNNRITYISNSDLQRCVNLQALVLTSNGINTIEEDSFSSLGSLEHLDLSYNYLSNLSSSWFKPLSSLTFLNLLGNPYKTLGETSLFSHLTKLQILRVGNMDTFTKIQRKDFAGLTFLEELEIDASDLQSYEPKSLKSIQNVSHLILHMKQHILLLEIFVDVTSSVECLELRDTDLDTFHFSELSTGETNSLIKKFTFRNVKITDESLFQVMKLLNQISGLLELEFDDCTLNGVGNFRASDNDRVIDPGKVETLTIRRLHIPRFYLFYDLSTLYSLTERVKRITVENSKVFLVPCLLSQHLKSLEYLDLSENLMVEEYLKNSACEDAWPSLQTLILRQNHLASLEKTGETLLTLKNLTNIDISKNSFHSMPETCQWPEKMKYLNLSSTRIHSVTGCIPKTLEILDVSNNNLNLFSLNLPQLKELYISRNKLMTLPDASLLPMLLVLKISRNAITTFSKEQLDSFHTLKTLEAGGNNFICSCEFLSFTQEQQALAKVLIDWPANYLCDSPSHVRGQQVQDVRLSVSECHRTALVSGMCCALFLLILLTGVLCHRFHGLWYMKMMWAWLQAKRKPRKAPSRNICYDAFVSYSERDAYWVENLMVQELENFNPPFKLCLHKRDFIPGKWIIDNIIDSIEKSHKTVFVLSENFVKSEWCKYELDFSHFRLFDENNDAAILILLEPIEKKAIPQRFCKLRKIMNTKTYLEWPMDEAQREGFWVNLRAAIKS
T1 sequence (Q9Y2C9 32-796 partner): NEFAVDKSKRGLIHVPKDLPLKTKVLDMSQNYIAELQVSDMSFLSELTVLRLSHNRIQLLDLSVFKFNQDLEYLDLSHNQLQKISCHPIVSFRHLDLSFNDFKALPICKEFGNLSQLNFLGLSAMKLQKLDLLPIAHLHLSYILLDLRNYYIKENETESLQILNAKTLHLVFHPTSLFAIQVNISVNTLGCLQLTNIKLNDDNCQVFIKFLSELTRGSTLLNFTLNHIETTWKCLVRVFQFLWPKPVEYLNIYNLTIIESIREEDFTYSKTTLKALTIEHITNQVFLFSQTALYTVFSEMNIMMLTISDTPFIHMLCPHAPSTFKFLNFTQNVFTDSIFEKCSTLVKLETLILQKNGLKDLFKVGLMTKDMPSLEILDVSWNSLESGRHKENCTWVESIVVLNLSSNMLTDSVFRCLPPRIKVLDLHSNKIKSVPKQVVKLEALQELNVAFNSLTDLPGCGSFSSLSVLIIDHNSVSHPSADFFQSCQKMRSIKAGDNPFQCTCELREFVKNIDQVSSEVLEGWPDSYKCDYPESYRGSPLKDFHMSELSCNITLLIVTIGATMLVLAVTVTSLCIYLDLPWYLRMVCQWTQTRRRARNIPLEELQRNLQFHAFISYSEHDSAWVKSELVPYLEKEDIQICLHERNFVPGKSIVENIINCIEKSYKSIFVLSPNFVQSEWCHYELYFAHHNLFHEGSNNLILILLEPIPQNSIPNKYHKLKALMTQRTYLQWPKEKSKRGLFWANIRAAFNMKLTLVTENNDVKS
Experimental: The potency of the compounds as activators of human and mouse TLR-2s was tested in an in vitro assay. The assay assesses NF-kB activation in the HEKBlue-mTLR-2 cell line. These cells have been stably transfected with mouse TLR-2 and express TLR-1 and TLR-6 endogenously at sufficient levels to allow for fully-functional TLR-1/2 and TLR-2/6 activation.
(§1) Toll-Like Receptor 2 (TLR2) stimulation is tested by assessing NF-kB activation in the HEKBlue-hTLR2 cell line. These cells have been stably transfected with human TLR2 and express TLR1 and TLR6 endogenously at a level sufficient to allow for fully-functional TLR1/2 and TLR2/6 activation. The activity of the test articles are tested on human TLR2 as potential agonists. The test articles are evaluated at seven concentrations and compared to control ligands. These steps are performed in triplicate.
as §1, with “stimulation was” for “stimulation is”, “assessing N-kB” for “assessing NF-kB”, “the HEK-Blue hTLR2” for “the HEKBlue-hTLR2”, “articles were” for “articles are”, “control ligands (see list below).” for “control ligands.”, “steps were” for “steps are”
The secreted embryonic alkaline phosphatase (SEAP) reporter is under the control of a promoter inducible by the transcription factor NF-κB. This reporter gene allows the monitoring of signaling through the TLR, based on the activation of NF-κB. In a 96-well plate (200 μL total volume) containing the appropriate cells (50,000-75,000 cells/well), 20 μL of the test article or the positive control ligand is added to the wells. The media added to the wells is designed for the detection of NF-κB induced SEAP expression. After a 20 hour incubation the optical density (OD) is read at 650 nm on a Molecular Devices SpectraMax 340PC absorbance detector.

in vitro [3] = details: human, hepatocytes
in vitro [4] = details: cynomolgus monkey, hepatocytes
in vitro [5] = details: dog, hepatocytes
[6] = dog plasma, 37° C., 4 h time course
[7] = human plasma, 37° C., 4 h time course
in vitro [8] = details: rat, hepatocytes
in vitro [9] = details: rat, plasma
Solubility in water = assay type: physicochemical
human TLR2 [10] = target: T1, human TLR2; test: NF-κB luciferase reporter assay in HEK293T cells transfected with human TLR2 plasmid; assay type: cell-based; details: dose range tested (12.2 pM to 3.125 pM), Example 9
Experimental: Comparison of the abilities of various compounds to stimulate luciferase activity in an NF-κB cell-based reporter system was determined. Compounds tested include INNA-006 (or compound (1)); INNA-013 (or compound (4)); INNA-014 (or compound (3)); INNA-015 (or compound (2)); INNA-010; INNA-011 (or compound (5)); INNA-012 (or compound (6)); and INNA-009. HEK293T cells, transiently co-transfected with a human TLR2 plasmid and a luciferase-NF-κB plasmid reporter system, were exposed to various dilutions of each compound. Successful receptor binding and subsequent signal transduction events were determined by measuring the luminescence due to luciferase activity (results shown in FIG. 11—left to right columns for each concentration are in the following order INNA-006 (or compound (1)); INNA-013 (or compound (4)); INNA-014 (or compound (3)); INNA-015 (or compound (2)); INNA-010; INNA-011 (or compound (5)); INNA-012 (or compound (6)); and INNA-009.
Comparison of the in vitro TLR2 agonistic activity of Pam3Cys-Ser-PEG3000 and INNA-006: HEK293T cells, transiently co-transfected with a human TLR2 plasmid and a luciferase-NF-κB plasmid reporter system, were exposed to various dilutions of INNA-006 or Pam3Cys-Ser-PEG3000. […]

Compound: CCCCCCCCCCCCCCCC(=O)OCC(CSCC(N)C(=O)NC(CO)C(=O)NC(CCCCN)C(=O)NC(CCCCN)C(=O)NC(CCCCN)C(=O)NC(CCCCN)C(=O)O)OC(=O)CCCCCCCCCCCCCCC (stereo not drawn) [INNA-005, Pam2Cys—Ser—Lys—Lys—Lys—Lys, reference compound] (H-C(X1)SKKKK-OH; configuration not given here)
- progression of influenza virus to the lungs (lung viral titre) ([1]; 0.005 nmoles intranasal 1 day prior to 500 pfu Udorn challenge): partial inhibition
- progression of influenza virus to the lungs (lung viral titre) ([1]; 0.1 nmoles intranasal 1 day prior to 500 pfu Udorn challenge): partial inhibition
- progression of influenza virus to the lungs (lung viral titre) ([1]; 5 nmoles intranasal 1 day prior to 500 pfu Udorn challenge): partial inhibition
- TLR2 activation, potency in words (human TLR2 [2]; Example 2): activated human TLR2
- EC50 (human TLR2 [2]; agonist activity against Human TLR-2 in vitro): 3.7 pM

Compound: CCCCCCCCCCCCCCCC(=O)OCC(CSC[C@H](N)C(=O)N[C@@H](CO)C(=O)NCCOCCOCCOCCOCCOCCOCCOCCOCCOCCOCCOCCOCCOCCOCCOCCOCCOCCOCCOCCOCCOCCOCCOCCOCCOCCOCCOCCOCCC(=O)NCC(N)=O)OC(=O)CCCCCCCCCCCCCCC (stereo partly drawn) [INNA-011]
- half-life at 0.5 μM (in vitro [3]): 5.47 h
- hepatocyte CLint at 0.5 μM (in vitro [3]): ≤ 2 µL/min/1e6 cells
- half-life at 0.5 μM (in vitro [4]): 2.88 h
- hepatocyte CLint at 0.5 μM (in vitro [4]): ≤ 2 µL/min/1e6 cells
- half-life at 0.5 μM (in vitro [5]): 4.73 h
- hepatocyte CLint at 0.5 μM (in vitro [5]): ≤ 2 µL/min/1e6 cells
- plasma half-life [6]: could not be calculated due to insufficient degradation
- plasma half-life [7]: could not be calculated due to insufficient degradation
- half-life at 0.5 μM (in vitro [8]): > 6.25 h
- hepatocyte CLint at 0.5 μM (in vitro [8]): ≤ 2 µL/min/1e6 cells
- half-life (in vitro [9]): 5.9 h

Compound: Pam3Cys-Ser-PEG3000
- solubility in water (Solubility in water): readily soluble in water
- ability to signal NF-κB compared with INNA-006 (human TLR2 [10]): inferior to INNA-006
